Results published in patent US20080026417A1, “ASSAYS FOR TRICHOMONAL AND OTHER HYDROLASES” (priority 2002, published 2008).

What was measured:
[1] = tested on: non-trichomonal hydrolases present in normal vaginal fluid supernatants; assay: Experiment 6 part 1: inhibition of non-trichomonal hydrolases in filtered normal vaginal fluid; assay type: biochemical, human; parameters: key: 0: Yellow; 1: Peach; 2: Orange; 3: Light to medium pink; 4: Dark pink or red; 5: Fuchsia; 6: Purple; conditions: uninfected, ZRR-MNA, 20 μg/mL antipain or 1 mM chymostatin
Protocol: (§1) Substrate/inhibitor combinations were prepared by mixing 4 μL of 100 mM ZRR-MNA, 20 μL of 1M HEPES buffer, 56 μL of deionized water, and 20 μL of either antipain, chymostatin, or deionized water. Filtered vaginal fluid was prepared from each specimen as follows: the swab was placed in a cuvette containing 200 μL of diluent and the swab was rotated in the diluent to thoroughly mix the swab contents into the diluent. The swab was removed, the swab head was broken off into a microfuge tube, and the liquid remaining in the swab head was forced out by centrifugation. The fluid extracted from the swab was combined with the liquid in the cuvette, and the total volume of fluid was filtered using a centrifuge filter unit to remove particulate matter.
(§2) For each specimen, 4 μL of vaginal fluid filtrate was mixed with 4 μL of each of the three substrate/inhibitor combinations in separate microwells; one well contained 20 μg/mL antipain, one contained 1 mM chymostatin, and one had no inhibitor. After ten minutes, 4 μL of color developer solution was added to each well.

trichomonal hydrolases [2] = assay: Experiment 6 part 2: inhibition of trichomonal hydrolases added to filtered vaginal fluid; assay type: biochemical, Trichomonas vaginalis; parameters: key: 0: Yellow; 1: Peach; 2: Orange; 3: Light to medium pink; 4: Dark pink or red; 5: Fuchsia; 6: Purple; conditions: ZRR-MNA, 20 μg/mL antipain or 1 mM chymostatin
Protocol: as §1, §2
Trichomonal hydrolases were added to each of the filtered vaginal fluid specimens—10 μL of trichomonal hydrolase preparation added to 90 μL vaginal fluid filtrate—and the above experiment was repeated.

trichomonal hydrolases [3] = assay: Experiment 1: hydrolysis of substrates by trichomonal hydrolases at pH 2.8-9.2, with or without normal vaginal fluid supernatant (NVS), absorbance 540 nm; assay type: biochemical, Trichomonas vaginalis; conditions: for Absorbance Readings: 540 nm
Protocol: Assays without normal vaginal fluid supernatant present: Two sets of six wells in a microtiter plate were prepared, with each well containing 80 μL of one of the six 200 mM buffers, 10 μL of water and 10 μL of diluted trichomonal hydrolases. Ten μL of ZRR-MNA was added to each well in the first set of wells, and 10 μl of VLK-MNA was added to each well in the second set of wells. After fifteen minutes, 100 μl of indicator solution was added to each well. Because a high pH can reduce the intensity of color produced by the indicator solution, 50 μl of 100 mM acetic acid buffer, pH 3.7, was added to each well except the pH 2.8 wells (water was substituted for the acetic acid in those wells). After another fifteen minutes, the absorbance of the solutions in the wells was measured on a microtiter plate reader set on 540 nm wavelength.
Assays with normal vaginal fluid supernatant (NVS) present: The procedure of the preceding paragraph was followed, except that 10 μL of diluted NVS was added to the wells in place of the 10 μL of water.

trichomonal hydrolases [4] = assay: Experiment 2: hydrolysis of substrates by trichomonal hydrolases with or without NVS, absorbance 540 nm; assay type: biochemical, Trichomonas vaginalis; conditions: absorbance at 540 nm per method; for Color Scores: Trichomonal hydrolases + NVS: 10% NVS
Protocol: Substrate solutions containing 8 mM of one of the four substrates (ZRR-MNA, BLRR-AMC, BLKR-AMC, ZKKR-AMC) in one of the two buffers (acetate, TRIS) were prepared by mixing 4 μL 100 mM substrate with 6 μL 6.3 mM L-cysteine, 14 μL 200 mM buffer and 26 μL water. Assays of trichomonal hydrolase activity, with or without the addition of NVS, were performed in 200 μL microwells. In one set of microwells, 10 μL of each substrate/buffer combination was mixed with 10 μL of undiluted trichomonal hydrolases. In a second set of microwells, 10 μL of each substrate/buffer combination was mixed with 10 μL of a mixture of 90% v/v trichomonal hydrolases and 10% NVS. Fifteen minutes later, 50 μL of indicator solution was added to each well. After another fifteen minutes, the absorbance of each solution in the wells was measured on a microtiter plate reader set on 540 nm wavelength.

[5] = tested on: hydrolases present in whole normal vaginal fluid; assay: Experiment 2: hydrolysis of substrates by whole normal vaginal fluid, visual color score; assay type: biochemical, human; parameters: key: 0: Yellow; 1: Peach; 2: Orange; 3: Light to medium pink; 4: Dark pink or red; 5: Fuchsia; 6: Purple; conditions: visual 0-6 scale
Protocol: Due to the partial opacity of cells and other particulate matter in whole vaginal fluid, assays of hydrolase activity present in whole vaginal fluid were performed in 20 μL conical microwells and scored visually. The vaginal fluid from a single normal, uninfected donor was agitated to resuspend the particulate matter, and 2 μL aliquots of the vaginal fluid were mixed with 2 μL of each substrate/buffer combination. To retard evaporation from the wells, water was pipetted into the mini-tray adjacent to the wells prior to replacing the tray cover. Fifteen minutes later, 2 μL of indicator solution was added to each well. After another fifteen minutes, the color in each well was visually scored in 0.5-unit increments using the 0-6 scale presented in Table 2.1.

trichomonal hydrolases [6] = assay: Experiment 13: hydrolysis of peptide substrates by trichomonal hydrolases at low pH, no vaginal fluid; assay type: biochemical, Trichomonas vaginalis; parameters: key: −: No red color produced; +: Clearly visible red color produced; ++: Moderately intense red color produced; +++: Very intense red color produced; conditions: without vaginal fluid; threonine buffer pH 2.4; 2 mM substrate solution; 10 min 25° C.; Fast Garnet
Protocol: (§3) Forty μL of each substrate was pipetted into duplicate wells of a microtiter plate. The plate was covered with tape, placed into a 25° C. incubator, and allowed to warm. A diluted enzyme mixture was prepared by mixing one part (v/v) freshly-thawed trichomonal hydrolase solution to nine parts 2 mM L-cysteine solution. Forty μL of this mixture was added to one well of each pair of duplicate wells. For negative controls, 40 μL of 2 mM L-cysteine was added to the second well in each pair of duplicate wells. The plate was returned to the incubator and incubated for ten minutes. Forty μL of SDS/acetate solution was added to each well, followed by 40 μL of Fast Garnet solution. The intensity of color that developed in each well after five minutes was visually scored using the color scale presented in Table 13.1.

trichomonal hydrolases [7] = assay: Experiment 13: hydrolysis of peptide substrates by trichomonal hydrolases at low pH in vaginal fluid supernatant; assay type: biochemical, Trichomonas vaginalis; parameters: key: −: No red color produced; +: Clearly visible red color produced; ++: Moderately intense red color produced; +++: Very intense red color produced; conditions: Fast Garnet
Protocol: as §3
Of the nine substrates hydrolyzed by trichomonal hydrolases to produce an intense pink color (scoring ++ or +++) in the absence of vaginal fluid supernatant, only four produced intense pink color when vaginal fluid supernatant was present.

SMILES: CC(C)C[C@H](NC(=O)[C@@H](NC(=O)N[C@@H](Cc1ccccc1)C(=O)O)[C@@H]1CCN=C(N)N1)C(=O)N[C@H](C=O)Cc1ccccc1 [Chymostatin, chymostatin]
- Hydrolase activity color score with inhibitor ([1]; Donor A): 0
- Hydrolase activity color score with inhibitor ([1]; Donor B): 0
- Hydrolase activity color score with inhibitor ([1]; Donor C): 0
- Hydrolase activity color score with inhibitor ([1]; Donor D): 2
- Hydrolase activity color score with inhibitor ([1]; Donor E): 0
- Hydrolase activity color score with inhibitor ([1]; Donor F): 0
- Hydrolase activity color score with inhibitor (trichomonal hydrolases [2]; Donor A filtrate supplemented with trichomonal hydrolases): 3.5
- Hydrolase activity color score with inhibitor (trichomonal hydrolases [2]; Donor B filtrate supplemented with trichomonal hydrolases): 3.5
- Hydrolase activity color score with inhibitor (trichomonal hydrolases [2]; Donor C filtrate supplemented with trichomonal hydrolases): 3.5
- Hydrolase activity color score with inhibitor (trichomonal hydrolases [2]; Donor D filtrate supplemented with trichomonal hydrolases): 4
- Hydrolase activity color score with inhibitor (trichomonal hydrolases [2]; Donor E filtrate supplemented with trichomonal hydrolases): 3
- Hydrolase activity color score with inhibitor (trichomonal hydrolases [2]; Donor F filtrate supplemented with trichomonal hydrolases): 3

SMILES: COc1cc(NC(=O)[C@H](CCCN=C(N)N)NC(=O)[C@H](CCCN=C(N)N)NC(=O)OCc2ccccc2)cc2ccccc12 [ZRR-MNA, CBZ-Arg-Arg-MNA]
- color production relative to that observed when vaginal fluid was not present (trichomonal hydrolases [3]; pH 8 TRIS buffer, 0.403/0.667): 60%
- Absorbance Readings (trichomonal hydrolases [3]; with vaginal fluid supernatant, Acetate pH 5.1): 0.082
- Absorbance Readings (trichomonal hydrolases [3]; with vaginal fluid supernatant, Borate pH 9.2): 0.089
- Absorbance Readings (trichomonal hydrolases [3]; with vaginal fluid supernatant, Gly-gly pH 2.8): 0.085
- Absorbance Readings (trichomonal hydrolases [3]; with vaginal fluid supernatant, HEPES pH 7.5): 0.386
- Absorbance Readings (trichomonal hydrolases [3]; with vaginal fluid supernatant, MOPS pH 7.0): 0.313
- Absorbance Readings (trichomonal hydrolases [3]; with vaginal fluid supernatant, TRIS pH 8.0): 0.403
- Absorbance Readings (trichomonal hydrolases [3]; without vaginal fluid supernatant, Acetate pH 5.1): 0.792
- Absorbance Readings (trichomonal hydrolases [3]; without vaginal fluid supernatant, Borate pH 9.2): 0.172
- Absorbance Readings (trichomonal hydrolases [3]; without vaginal fluid supernatant, Gly-gly pH 2.8): 0.631
- Absorbance Readings (trichomonal hydrolases [3]; without vaginal fluid supernatant, HEPES pH 7.5): 0.738
- Absorbance Readings (trichomonal hydrolases [3]; without vaginal fluid supernatant, MOPS pH 7.0): 0.638
- Absorbance Readings (trichomonal hydrolases [3]; without vaginal fluid supernatant, TRIS pH 8.0): 0.667
- Color Scores: Trichomonal hydrolases + NVS (trichomonal hydrolases [4]; pH 5 acetate): 0.068
- Color Scores: Trichomonal hydrolases (trichomonal hydrolases [4]; pH 5 acetate): 0.420
- Color Scores: Trichomonal hydrolases + NVS (trichomonal hydrolases [4]; pH 8 TRIS): 0.182
- Color Scores: Trichomonal hydrolases (trichomonal hydrolases [4]; pH 8 TRIS): 0.385
- Color Scores: Whole normal vaginal fluid ([5]; pH 5 acetate): 3
- Color Scores: Whole normal vaginal fluid ([5]; pH 8 TRIS): 4
- Color Score (trichomonal hydrolases [6]): ++
- Color Score (trichomonal hydrolases [7]): +
